Source: patent US11065226B2, “Combination comprising EP4 antagonist and immune checkpoint inhibitor” (ONO PHARMACEUTICAL CO., LTD., priority 2016, dated 2021)

Legend:
[1] = test system: mouse colorectal cancer cell line MC38; assay: Combination therapy with Example 2-2 and anti-mouse PD-1 antibody in allograft model of MC38; assay type: in vivo; conditions: female C57BL/6 mice, Example 2-2 3 mg/kg orally twice a day day 8 to 24, anti-mouse PD-1 antibody i.p. 20 mg/kg day 8, 10 mg/kg day 14 and 20
Description: (§1) The effect of the combination therapy with the compound of Example 2-2 and an anti-mouse PD-1 antibody was evaluated in an allograft model of a mouse colorectal cancer cell line, MC38 (Cancer Res. (1975), 35(9), p 2434-9). The MC38 cells were cultured in a DMEM medium containing 10 vol % FBS, 100 units/mL penicillin, and 100 μg/mL streptomycin in a CO2 incubator. On the day of transplantation, the culture supernatant was removed, and then the MC38 cells were washed with PBS and collected. The collected MC38 cells were suspended in PBS and used as transplant cells. Under anesthesia, 1,000,000 transplant cells were subcutaneously transplanted into the right lateral abdominal regions of female C57BL/6 mice. On day 8 after the transplantation, the mice were divided into four groups of a vehicle group, an Example 2-2 compound-single therapy group, an anti-mouse PD-1 antibody-single therapy group, and a combination therapy group (the compound of Example 2-2 and the anti-mouse PD-1 antibody), each containing 10 individuals. […] The tumor volumes (mm^3) were calculated by the following equation from the tumor lengths along the minor axis and the major axis which were measured using a digital caliper. […]

rat EP4 receptor = biological target: T1, rat EP4 receptor (Rattus norvegicus, UniProt P43114); assay: EP4 antagonistic activity measurement using prostanoid receptor subtype-expressing cells (cAMP, PGE2 10 nM); assay type: cell-based; conditions: CHO cells expressing rat EP4 receptor; inhibition of cAMP production by PGE2 10 nM; 30 minutes at room temperature
T1 construct: expressed in transfected cells; host or cells: CHO cells
Description: CHO cells expressing rat EP4 receptor subtypes were prepared according to the methods of Nishigaki et al. (Non-Patent Document 4) and used for experiment. Cultured subconfluent cells were detached and suspended in an assay medium (MEM containing 1 mmol/L IBMX, 1% HSA) in a concentration of 1×10^6 cells/mL. To start the reaction, PGE2 was added to the cell suspension (25 μL) in a final concentration of 10 nmol/L, either alone or as a 25-μL PGE2 solution containing a test compound. After 30 minutes of reaction at room temperature, the amount of cAMP in the cells was quantified according to the method in the descriptions of the cAMP assay kit (CISBIO).
The antagonistic effect (IC50 value) of the test compound was calculated as a value that represents an inhibition rate against a reaction with PGE2 alone at 10 nM, a concentration that produces a submaximal cAMP producing effect.

[2] = test system: mouse colorectal cancer cell line MC38; assay: Combination therapy with Example 2-13 and anti-mouse PD-1 antibody in allograft model of MC38; assay type: in vivo; conditions: female C57BL/6 mice
Description: as §1, with “Example 2-13” for “Example 2-2”, “and 100}μg/mL” for “and 100 μg/mL”, “anesthesia, 200,000” for “anesthesia, 1,000,000”, “day 7” for “day 8”

[3] = test system: mouse colorectal cancer cell line MC38; assay: Combination therapy with Example 2-13 and anti-mouse CTLA-4 antibody in allograft model of MC38; assay type: in vivo; conditions: female C57BL/6 mice, Example 2-13 5 mg/kg orally twice a day day 7 to 28, anti-mouse CTLA-4 antibody i.p. 10 mg/kg day 7, 10, 14, 17
Description: (§2) The effect of the combination therapy with the compound of Example 2-13 and an anti-mouse CTLA-4 antibody was evaluated in an allograft model of a mouse colorectal cancer cell line, MC38. The MC38 cells were cultured using a DMEM medium containing 10 vol % FBS, 2 mmol/L Glutamax, 100 units/mL penicillin, and 100 μg/mL streptomycin in a CO2 incubator. On the day of transplantation, the culture supernatant was removed, and then the MC38 cells were washed with PBS and collected. The collected MC38 cells were suspended in PBS and used as transplant cells. Under anesthesia, 1,000,000 transplant cells were subcutaneously transplanted into the right lateral abdominal regions of female C57BL/6 mice. On day 7 after the transplantation, the mice were divided into four groups of a vehicle group, an Example 2-13 compound-single therapy group, an anti-mouse CTLA-4 antibody-single therapy group, and a combination therapy group (the compound of Example 2-13 and the anti-mouse CTLA-4 antibody), each containing 15 individuals. […] The tumor volumes (mm^3) were calculated by the following equation from the tumor lengths along the minor axis and the major axis and the tumor height which were measured using a digital caliper. […]

[4] = test system: mouse fibrosarcoma cell line SalN; assay: Combination therapy with Example 2-13 and anti-mouse PD-1 antibody in allograft model of SalN; assay type: in vivo; conditions: female A/J mice, Example 2-13 5 mg/kg orally twice a day day 7 to 21, anti-mouse PD-1 antibody i.p. 3 mg/kg day 7, 10, 14, 17
Description: as §2, with “PD-1” for “CTLA-4”, “fibrosarcoma” for “colorectal cancer”, “SalN (Cancer Res. (2012), 72(4), p 917-27).” for “MC38.”, “SalN” for “MC38”, “2,000,000” for “1,000,000”, “A/J” for “C57BL/6”

[5] = test system: mouse colorectal cancer cell line CT26; assay: Combination therapy with Example 2-13 and anti-mouse PD-1 antibody in allograft model of CT26; assay type: in vivo; conditions: female BALB/c mice, Example 2-13 5 mg/kg orally twice a day day 7 to 21, anti-mouse PD-1 antibody i.p. 3 mg/kg day 7, 10, 14, 17
Description: as §2, with “PD-1” for “CTLA-4”, “CT26 (Cancer Res. (2013), 73(12), p3591-603).” for “MC38.”, “CT26” for “MC38”, “RPMI” for “DMEM”, “BALB/c” for “C57BL/6”, “15 to 18” for “15”

T1 sequence (P43114 whole entry): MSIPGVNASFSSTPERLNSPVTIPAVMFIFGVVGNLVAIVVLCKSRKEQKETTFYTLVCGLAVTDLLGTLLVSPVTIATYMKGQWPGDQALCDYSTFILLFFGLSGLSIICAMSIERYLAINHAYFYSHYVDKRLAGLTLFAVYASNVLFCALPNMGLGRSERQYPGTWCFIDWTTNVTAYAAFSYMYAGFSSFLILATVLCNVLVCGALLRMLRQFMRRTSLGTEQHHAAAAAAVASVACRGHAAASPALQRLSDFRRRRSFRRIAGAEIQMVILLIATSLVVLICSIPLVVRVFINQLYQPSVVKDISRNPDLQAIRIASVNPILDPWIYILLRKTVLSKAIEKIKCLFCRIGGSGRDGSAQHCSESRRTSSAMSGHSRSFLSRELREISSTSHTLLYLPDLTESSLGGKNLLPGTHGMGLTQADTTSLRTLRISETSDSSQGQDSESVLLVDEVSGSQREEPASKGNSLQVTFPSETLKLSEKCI

## COCCNC(=O)c1ccc2c(c1)[C@]1(CCO2)C[C@H]1C(=O)Nc1cc(C#N)ccc1CCCC(=O)O [Example 2-2]
[1]
  tumor growth (tumor volume, FIG. 2): inhibited the tumor growth alone

## Cn1cc(NC(=O)c2ccc3c(c2)[C@]2(CCO3)C[C@H]2C(=O)Nc2cc(C#N)ccc2CCCC(=O)O)cn1 [Example 2-5]
Rat EP4 receptor
  IC50: 1.3 nM

## CC(C)NC(=O)c1ccc2c(c1)[C@]1(CCO2)C[C@H]1C(=O)Nc1cc(C#N)ccc1CCCC(=O)O [Example 2-13, 4-[4-cyano-2-({[(2′R,4S)-6-(isopropylcarbamoyl)-2,3-dihydrospiro[chromene-4,1′-cyclopropan]-2′-yl]carbonyl}amino)phenyl]butanoic acid]
[2]; Example 2-13 3 mg/kg orally twice a day to day 28, anti-mouse PD-1 antibody i.p. 20 mg/kg day 7, 10 mg/kg day 13 and 19
  Cases of Disappearance of Tumor/Cases: 0/10
[2]; Example 2-13 3 mg/kg orally, anti-mouse PD-1 antibody i.p. 20 mg/kg then 10 mg/kg
  tumor growth (tumor volume, FIG. 1): inhibited the tumor growth alone
[3]
  tumor growth (tumor volume, FIG. 3): inhibited the tumor growth alone
[4]
  tumor growth (tumor volume, FIG. 4): inhibited the tumor growth alone
[5]
  tumor growth (tumor volume, FIG. 5): inhibited the tumor growth alone
